From publication PMC4926326, “Synthesis, Biological Activity, and Apoptotic Properties of NO-Donor/Enmein-Type ent-Kauranoid Hybrids” (International Journal of Molecular Sciences, 2016)
≈ marks a conversion by molar mass, not a printed value. Like-named read-outs stand apart in the source and are kept apart here.

Assays:
[1] = tested on: Bel-7402 hepatoma cell line; test: MTT antiproliferative assay; type: cell-based, human; settings: for IC50: Homo sapiens, read-out: IC50 Bel-7402; for SI (selectivity index): SI = IC50, L-02/IC50, Bel-7402
Method: (§1) The antiproliferative activity of 9a–i against four human cancer cell lines K562 leukemia cell line, MGC-803 gastric cancer cell line, CaEs-17 esophageal cancer cell line, and Bel-7402 hepatoma cell line, and human normal liver cells L-02 was evaluated by MTT assay (Table 2).
(§2) MTT assay was developed to monitor mammalian cell survival and proliferation in vitro [32]. CaEs-17 cells (K562, Bel-7402 and MGC-803 cells) from American Type Culture Collection (ATCC, Manassas, VA, USA) were cultivated in RPMI-1640 medium supplemented with 5% fetal bovine serum (v/v), 100 U/mL penicillin, and […] streptomycin. Cells (5 × 10^4 cell/mL) at the log phase of their growth cycle were added to each well of a 96-well plate (100 µL/well) and incubated for 24 h at 37 °C in a humidified atmosphere of 5% CO2. Then, cells were treated with or without test compounds in different concentrations. After 72 h, 5 mg/mL MTT solution (20 µL per well) was added. Cells were incubated at 37 °C. After 4 h, MTT solution was removed and DMSO was added to each well (150 µL). Ten minutes later at room temperature, the optical density (OD) values were measured at the wavelength of 490 nm on a Microplate Reader NO. 550 (BIO-RAD Instruments Inc., Hercules, CA, USA). In this experiment, 10 µg/mL of Taxol was used as the positive control and 0.1% DMSO was used as the negative reference.

[2] = tested on: K562 leukemia cell line; test: MTT antiproliferative assay; type: cell-based, human; settings: Homo sapiens, K562, 72 h, read-out: IC50 K562
Method: as §1, §2

[3] = tested on: MGC-803 gastric cancer cell line; test: MTT antiproliferative assay; type: cell-based, human; settings: Homo sapiens, MGC-803, 72 h, read-out: IC50 MGC-803
Method: as §1, §2

[4] = tested on: Escherichia coli (ATCC 25922); test: Antibacterial assay, microbroth dilution MIC; type: cell-based; settings: for MIC: Escherichia coli, read-out: MIC E. coli
Source text: (§3) The antibacterial activity of NO donor/enmein-type ent-kauranoid hybrids 9a–i against the Gram-negative bacterium Escherichia coli (ATCC 25922), Gram-positive bacterium Staphylococcus aureus (ATCC 29213) and Bacillus subtilis (CMCC 63501), and the fungus Monilia albicans (ATCC 10231) was first disclosed and summarized in Table 1. […] Thus, the introduction of NO-donor substituent groups at the 14-position of enmein-type 6,7-seco-ent-kauranoid could improve antimicrobial activity against S. aureus and B. subtilis.
(§4) The minimal inhibitory concentrations (MICs) were carried out by microbroth dilution method described by the Clinical Laboratory Standards Institute. A stock solution of all the target compounds was prepared with DMSO-medium (1:2), and then graded quantities of the test compounds were diluted with medium. The specified concentration suspension of fungus and bacterium contained approximately 10^3, and 10^5 CFU/mL was added into microtitration plates. The inoculated 96-well plates were incubated at 35 °C for 18 h. MIC was defined as the lowest concentrations that prevented visible growth of the bacteria.

[5] = tested on: Bacillus subtilis (CMCC 63501); test: Antibacterial assay, microbroth dilution MIC; type: cell-based; settings: for MIC: Bacillus subtilis, read-out: MIC B. subtilis
Source text: as §3, §4

[6] = tested on: Staphylococcus aureus (ATCC 29213); test: Antibacterial assay, microbroth dilution MIC; type: cell-based; settings: for MIC: Staphylococcus aureus, read-out: MIC S. aureus
Source text: as §3, §4

[7] = tested on: human normal liver cells L-02; test: MTT assay on normal cells; type: cell-based; settings: 72 h, read-out: IC50 L-02
Method: as §1, §2

[8] = tested on: CaEs-17 esophageal cancer cell line; test: MTT antiproliferative assay; type: cell-based; settings: Homo sapiens, read-out: IC50 CaEs-17
Method: as §1, §2

[9] = tested on: Monilia albicans (ATCC 10231); test: Antifungal assay, microbroth dilution MIC; type: cell-based; settings: Candida albicans, read-out: MIC M. albicans
Source text: as §3, §4

[10] = Bel-7402, MTT, 72 h, mean ± SD of three experiments
[11] = MTT, 72 h, mean ± SD of three experiments
[12] = MTT, normal liver cells, mean ± SD of three experiments
[13] = CaEs17, MTT, 72 h, mean ± SD of three experiments

| SMILES | IC50 [1, 10] | SI (selectivity index) [1] | IC50 [2, 11] | IC50 [3, 11] | MIC ([4]; ATCC25922, 35 °C, 18 h) | MIC ([5]; CMCC63501, 35 °C, 18 h) | MIC ([6]; ATCC29213, 35 °C, 18 h) | IC50 [7, 12] | IC50 [8, 13] | MIC ([9]; ATCC10231, 35 °C, 18 h) | melting point | further results |
| --- | --- | --- | --- | --- | --- | --- | --- | --- | --- | --- | --- | --- |
| C=C1C(=O)[C@]23[C@H](O)[C@H]1CC[C@H]2[C@@]12CO[C@]3(O)[C@@H](O)[C@@H]1C(C)(C)CC[C@@H]2O [Compound 7, oridonin, reference compound] | 7.48 ± 0.53 µM | 2.4 | 4.76 ± 0.32 µM | 5.69 ± 0.39 µM | > 100 µg/mL | 32 µg/mL (≈ 87.8 µM) | 32 µg/mL (≈ 87.8 µM) | 18.3 ± 0.81 µM | 11 ± 1.02 µM | > 100 µg/mL | – | – |
| C=C1C(=O)[C@@]23C(=O)O[C@H]4CCC(C)(C)[C@H]5[C@H](O)OC[C@@]45[C@@H]2CC[C@@H]1[C@H]3OC(=O)CCCC(=O)OCCCCOc1no[n+]([O-])c1S(=O)(=O)c1ccccc1 [Compound 9h] | 1.08 ± 0.05 µM | 11.1 | 2.11 ± 0.16 µM | 1.49 ± 0.11 µM | > 100 µg/mL | 16 µg/mL (≈ 20.7 µM) | 16 µg/mL (≈ 20.7 µM) | 12.1 ± 1.08 µM | 4.68 ± 0.31 µM | > 100 µg/mL | 78 to 80 °C | – |
| C=C1C(=O)[C@@]23C(=O)O[C@H]4CCC(C)(C)[C@H]5[C@H](O)OC[C@@]45[C@@H]2CC[C@@H]1[C@H]3OC(=O)c1ccccc1C(=O)OCCOc1no[n+]([O-])c1S(=O)(=O)c1ccccc1 [Compound 9c] | 0.83 ± 0.06 µM | 23.9 | 1.93 ± 0.1 µM | 1.34 ± 0.13 µM | > 100 µg/mL | 4 µg/mL (≈ 5.14 µM) | 8 µg/mL (≈ 10.3 µM) | 19.87 ± 0.18 µM | 3.76 ± 0.37 µM | > 100 µg/mL | 137 to 139 °C | – |
| C=C1C(=O)[C@@]23C(=O)O[C@H]4CCC(C)(C)[C@H]5[C@H](O)OC[C@@]45[C@@H]2CC[C@@H]1[C@H]3OC(=O)CCC(=O)OCCOc1no[n+]([O-])c1S(=O)(=O)c1ccccc1 [Compound 9a] | 1.33 ± 0.1 µM | 7.7 | 2.47 ± 0.16 µM | 1.83 ± 0.16 µM | > 100 µg/mL | 64 µg/mL (≈ 87.6 µM) | 16 µg/mL (≈ 21.9 µM) | 10.4 ± 0.61 µM | 5.12 ± 0.42 µM | > 100 µg/mL | 92 to 94 °C | – |
| C=C1C(=O)[C@@]23C(=O)O[C@H]4CCC(C)(C)[C@H]5[C@H](O)OC[C@@]45[C@@H]2CC[C@@H]1[C@H]3OC(=O)CCCC(=O)OCCCOc1no[n+]([O-])c1S(=O)(=O)c1ccccc1 [Compound 9e] | 0.92 ± 0.05 µM | 18.6 | 1.92 ± 0.09 µM | 1.29 ± 0.12 µM | > 100 µg/mL | 16 µg/mL (≈ 21.1 µM) | 16 µg/mL (≈ 21.1 µM) | 17.2 ± 0.77 µM | 4.27 ± 0.35 µM | > 100 µg/mL | 82 to 84 °C | – |
| O=C(N[C@H](CO)[C@H](O)c1ccc([N+](=O)[O-])cc1)C(Cl)Cl [Chloromycetin, reference compound] | – | – | – | – | – | – | – | – | – | – | – | MIC E. coli ([4]; 35 °C, 18 h): 4 µg/mL (≈ 12.4 µM); MIC B. subtilis ([5]; 35 °C, 18 h): 8 µg/mL (≈ 24.8 µM); MIC S. aureus ([6]; 35 °C, 18 h): 4 µg/mL (≈ 12.4 µM) |
| CC(=O)O[C@H]1C(=O)[C@@]2(C)[C@H]([C@H](OC(=O)c3ccccc3)[C@]3(O)C[C@H](OC(=O)[C@H](O)[C@@H](NC(=O)c4ccccc4)c4ccccc4)C(C)=C1C3(C)C)[C@]1(OC(C)=O)CO[C@@H]1C[C@@H]2O [Taxol, reference compound] | 1.89 ± 0.09 µM | 1.9 | 0.41 ± 0.02 µM | 0.85 ± 0.06 µM | – | – | – | 3.73 ± 0.17 µM | 0.43 ± 0.03 µM | – | – | – |
| OC(Cn1cncn1)(Cn1cncn1)c1ccc(F)cc1F [Fluconazole, reference compound] | – | – | – | – | – | – | – | – | – | 4 µg/mL (≈ 13.1 µM) | – | – |
| C=C1C(=O)[C@@]23C(=O)O[C@H]4CCC(C)(C)[C@H]5[C@H](O)OC[C@@]45[C@@H]2CC[C@@H]1[C@H]3O [Compound 8] | – | – | – | – | – | – | – | – | – | – | – | IC50 ([1]; Bel-7402, 72 h): 33 ± 2.19 µM; IC50 [2]: 8.11 ± 0.76 µM; IC50 [3]: 14.2 ± 1.22 µM; MIC ([4]; ATCC25922, 18 h): > 100 µg/mL; MIC ([5]; CMCC63501, 18 h): > 100 µg/mL; MIC ([6]; ATCC29213, 18 h): > 100 µg/mL; IC50 [7]: 24.4 ± 1.59 µM; IC50 ([8]; CaEs17, 72 h): 30.8 ± 2.09 µM; MIC ([9]; ATCC10231, 18 h): > 100 µg/mL |
